In one assay the target is Jarid1B (Homo sapiens (Human), UniProt Q9UGL1). The assay is described as follows: Jarid1B in vitro enzyme inhibition assay (TR-FRET). The assay is classed as biochemical. Particulars: TR-FRET, H3K4me3-biotin peptide; read-out: IC50 Jarid1B. (In general: Time-resolved FRET reads energy transfer from a long-lived donor to a nearby acceptor.)
A further assay has as its target JMJD2A (Homo sapiens (Human), UniProt O75164). The experiment in a line: JMJD2A in vitro enzyme inhibition assay (TR-FRET). The assay is classed as biochemical. Particulars: H3K9me3-biotin peptide. The procedure: This assay determines the ability of a test compound to inhibit Jarid1A, Jarid1B, JMJD2C, and JMJD2A demethylase activity.
Reaction product was determined quantitatively by TR-FRET after the addition of detection reagent Phycolink Streptavidin-allophycocyanin (Prozyme) and Europium-anti-di-methylated histone H3 lysine 9 (H3K9me2) antibody (PerkinElmer) in the presence of 5 mM EDTA in LANCE detection buffer (PerkinElmer) at a final concentration of 50 nM and 1 nM, respectively.
The assay reaction was initiated by the following: 2 μl of the mixture of 900 nM H3K9me3-biotin labeled peptide and 6 μM alpha-ketoglutaric acid with 2 μl of 11-point serial diluted inhibitor in 3% DMSO were added to each well of plate, followed by the addition of 2 μl of 6 nM JMJD2A to initiate the reaction. The reaction mixture was incubated at room temperature for 30 minutes, and terminated by the addition of 6 μl of 5 mM EDTA in LANCE detection buffer containing 100 nM Phycolink Streptavidin-allophycocyanin and 2 nM Europium-anti-H3K9me2 antibody.
The ability of the compounds disclosed herein to inhibit demethylase activity was quantified and the respective IC50 value was determined.

A further assay addresses Jarid1A (Homo sapiens (Human), UniProt P29375). The experiment in a line: Jarid1A in vitro enzyme inhibition assay (TR-FRET). The format is biochemical. Particulars: H3K4me3-biotin peptide.
The target of the next assay is JMJD2C (Homo sapiens (Human), UniProt Q9H3R0). The experiment in a line: JMJD2C in vitro enzyme inhibition assay (TR-FRET). The assay is classed as biochemical. Particulars: TR-FRET, H3K9me3-biotin peptide; read-out: IC50 JNJD2C.
Chain of JMJD2C (Q9H3R0 2-372): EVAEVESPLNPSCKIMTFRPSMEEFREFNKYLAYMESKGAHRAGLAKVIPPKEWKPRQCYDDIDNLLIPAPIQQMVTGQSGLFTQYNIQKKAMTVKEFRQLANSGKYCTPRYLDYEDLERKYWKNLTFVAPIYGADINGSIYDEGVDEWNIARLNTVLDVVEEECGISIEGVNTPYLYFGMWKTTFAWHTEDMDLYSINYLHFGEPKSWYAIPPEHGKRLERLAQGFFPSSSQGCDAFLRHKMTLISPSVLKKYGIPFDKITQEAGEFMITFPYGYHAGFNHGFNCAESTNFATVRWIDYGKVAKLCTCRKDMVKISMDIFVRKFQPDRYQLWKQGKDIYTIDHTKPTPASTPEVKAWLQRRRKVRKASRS
The next assay concerns KDM5A and KDM5B. The experiment in a line: In vitro cell-based assay, ZR-75-1 cell line: tri-methyl H3K4 immuno-blotting (cellular inhibition of KDM5A/B). To be noted: ZR-75-1 breast cancer cells, 72 hours, read-out: IC50 ZR-75-1 cell-MOA. The text has this:
This quantitative immuno-blotting assay measures the amount tri-methylated histone H3 at amino acid Lysine number 4, a specific substrate […] of the direct enzymatic activity of the histone demethylases KDM5A and KDM5B from extracts of the ZR-75-1 breast cancer cell line.
This assay is a fluorometric immunoassay for the quantification of tri-methyl H3K4 extracted from cells treated with test compound and is used as a measure of the cellular inhibition of KDM5A/B.
Cells were left in the presence of test compound for 72 hours. Extracts were prepared containing all of the cellular histone material using detergent based lysis and sonication methods. These lysates were subsequently normalized for total protein content using a colorimetric bicinchonic acid assay (MicroBCA Pierce/Thermo Scientific). Normalized cell extracts were then subjected to typical immuno-blotting procedures using NuPage reagents (Life Technologies). Electrophoretically separated histones were then transferred and immobilized using polyvinylidene difluoride membrane (Immobilon-FL Millipore). The amount of tri-methylated lysine 4 of histone H3 was detected using an antibody specific to the tri-methylated state (Cell Signaling Technologies) and quantified on an infrared imager using a densitometry software package (Odyssey CLx, Image Studio, Li-Cor). This background subtracted densitometry value was reported as a ration of the GAPDH amount for that sample and then calculated as a percent of the DMSO treated sample. The software package XL-fit (IDBS) was then used to calculate a relative IC50 value for the dilution series of a given test compound according to the equation: fit=(D+((Vmax*(x^n))/((x^n)+(Km^n)))).

The IC50 is the midpoint of a concentration-inhibition curve.

Counter-ions that a name gives are not always drawn.

Chain of JMJD2A (O75164 1-350): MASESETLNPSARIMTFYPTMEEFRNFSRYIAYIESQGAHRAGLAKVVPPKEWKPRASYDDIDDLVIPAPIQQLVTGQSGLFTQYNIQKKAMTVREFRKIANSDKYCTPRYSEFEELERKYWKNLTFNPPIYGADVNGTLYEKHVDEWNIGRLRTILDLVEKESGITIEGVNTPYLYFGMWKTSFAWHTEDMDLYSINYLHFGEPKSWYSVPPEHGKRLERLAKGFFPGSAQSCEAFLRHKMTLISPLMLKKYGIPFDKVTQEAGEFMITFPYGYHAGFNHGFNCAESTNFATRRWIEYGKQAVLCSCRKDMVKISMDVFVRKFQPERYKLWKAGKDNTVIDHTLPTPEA
Chain of Jarid1A (P29375 1-1090): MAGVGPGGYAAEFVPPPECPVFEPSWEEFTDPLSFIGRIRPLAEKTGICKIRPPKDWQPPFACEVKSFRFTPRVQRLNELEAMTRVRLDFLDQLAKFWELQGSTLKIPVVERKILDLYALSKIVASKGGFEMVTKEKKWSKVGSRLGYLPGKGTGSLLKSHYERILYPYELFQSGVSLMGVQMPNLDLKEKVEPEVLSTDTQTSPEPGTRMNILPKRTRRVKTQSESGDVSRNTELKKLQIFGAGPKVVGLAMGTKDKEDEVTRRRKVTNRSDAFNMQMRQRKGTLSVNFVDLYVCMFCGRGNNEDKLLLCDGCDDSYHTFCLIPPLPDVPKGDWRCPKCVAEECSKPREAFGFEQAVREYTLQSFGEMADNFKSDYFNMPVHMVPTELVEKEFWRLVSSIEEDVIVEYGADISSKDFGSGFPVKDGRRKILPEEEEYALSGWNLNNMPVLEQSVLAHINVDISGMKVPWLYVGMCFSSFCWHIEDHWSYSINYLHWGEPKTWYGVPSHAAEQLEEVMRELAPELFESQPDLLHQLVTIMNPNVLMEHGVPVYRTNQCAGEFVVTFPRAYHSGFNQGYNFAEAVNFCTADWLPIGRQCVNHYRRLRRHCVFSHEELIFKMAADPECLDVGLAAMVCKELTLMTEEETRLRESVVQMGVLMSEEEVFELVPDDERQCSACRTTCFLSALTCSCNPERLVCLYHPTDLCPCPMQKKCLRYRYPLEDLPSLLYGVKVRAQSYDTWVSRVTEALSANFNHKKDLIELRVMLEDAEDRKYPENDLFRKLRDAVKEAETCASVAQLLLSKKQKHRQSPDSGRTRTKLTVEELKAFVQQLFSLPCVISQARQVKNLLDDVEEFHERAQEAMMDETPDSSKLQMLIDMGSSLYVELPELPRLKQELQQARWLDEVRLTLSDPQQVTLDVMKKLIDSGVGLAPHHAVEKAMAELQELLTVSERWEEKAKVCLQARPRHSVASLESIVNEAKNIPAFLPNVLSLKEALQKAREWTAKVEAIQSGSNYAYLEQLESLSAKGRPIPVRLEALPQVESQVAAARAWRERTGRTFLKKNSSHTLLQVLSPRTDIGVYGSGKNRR
Chain of Jarid1B (Q9UGL1 2-751): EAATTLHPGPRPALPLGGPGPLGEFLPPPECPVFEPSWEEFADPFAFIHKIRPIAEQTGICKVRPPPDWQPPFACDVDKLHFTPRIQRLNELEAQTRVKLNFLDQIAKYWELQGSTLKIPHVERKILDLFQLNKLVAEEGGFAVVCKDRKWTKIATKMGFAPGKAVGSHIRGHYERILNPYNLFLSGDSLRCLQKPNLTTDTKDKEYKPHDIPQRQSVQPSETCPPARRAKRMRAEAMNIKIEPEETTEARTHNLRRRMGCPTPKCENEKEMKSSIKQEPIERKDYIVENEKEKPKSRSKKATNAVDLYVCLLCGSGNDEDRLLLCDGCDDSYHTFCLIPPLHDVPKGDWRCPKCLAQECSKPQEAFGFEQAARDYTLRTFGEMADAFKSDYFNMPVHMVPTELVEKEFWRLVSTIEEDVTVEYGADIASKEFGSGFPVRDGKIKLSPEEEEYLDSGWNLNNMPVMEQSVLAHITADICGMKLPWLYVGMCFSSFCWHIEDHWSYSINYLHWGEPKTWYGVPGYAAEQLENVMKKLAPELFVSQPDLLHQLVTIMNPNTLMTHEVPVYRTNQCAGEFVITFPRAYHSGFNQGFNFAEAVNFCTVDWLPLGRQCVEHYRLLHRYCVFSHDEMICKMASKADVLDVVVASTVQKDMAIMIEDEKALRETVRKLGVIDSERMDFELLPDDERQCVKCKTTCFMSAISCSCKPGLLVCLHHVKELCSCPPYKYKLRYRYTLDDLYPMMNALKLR

On to `O=C(O)c1ccnc2cc(C(O)C3CCOCC3)[nH]c12` (racemic) [Example 43, (±)-2-[hydroxy(oxan-4-yl)methyl]-1H-pyrrolo[3,2-b]pyridine-7-carboxylic acid], for which the IC50 at Jarid1B is less than 100 nM; on JMJD2A it was 100 to 1000 nM; against Jarid1A, less than 100 nM; at JMJD2C, 100 to 1000 nM.

Take `O=C(O)c1ccnc2cc(Cc3ccc(F)c(F)c3)[nH]c12` [Example 126, 2-(3,4-difluorobenzyl)-1H-pyrrolo[3,2-b]pyridine-7-carboxylic acid]: the IC50 on Jarid1B is 1000 to 10000 nM; against JMJD2A, less than 100 nM; against Jarid1A, 1000 to 10000 nM; on JMJD2C, less than 100 nM.

As to `O=C(O)c1ccnc2cc(C(=O)N3CCCC3)[nH]c12` [Example 99, 2-(pyrrolidin-1-ylcarbonyl)-1H-pyrrolo[3,2-b]pyridine-7-carboxylic acid], the IC50 at Jarid1B, at JMJD2A, against Jarid1A and at JMJD2C was less than 100 nM throughout.

As to `O=C(O)c1ccnc2cc(Cc3cc(F)c(Cl)c(Cl)c3)[nH]c12` [Example 132, 2-(3,4-dichloro-5-fluorobenzyl)-1H-pyrrolo[3,2-b]pyridine-7-carboxylic acid], the IC50 at Jarid1B lay within 1000 to 10000 nM; against JMJD2A it was 100 to 1000 nM; against Jarid1A, 1000 to 10000 nM; on JMJD2C, 100 to 1000 nM.

As to `O=C(O)c1ccnc2cc(-c3ccccc3)[nH]c12` [Example 2, 2-phenyl-1H-pyrrolo[3,2-b]pyridine-7-carboxylic acid], the IC50 at Jarid1B, on JMJD2A, at Jarid1A and on JMJD2C was 100 to 1000 nM in each case.

In the case of `O=C(O)c1ccnc2cc(Cc3ccc(Cl)c(OC(F)(F)F)c3)[nH]c12` [Example 142, 2-[4-chloro-3-(trifluoromethoxy)benzyl]-1H-pyrrolo[3,2-b]pyridine-7-carboxylic acid], the IC50 is less than 100 nM on Jarid1B, 100 to 1000 nM against JMJD2A, 100 to 1000 nM against Jarid1A and less than 100 nM on JMJD2C.

With `COc1cccc(Cc2cc3nccc(C(=O)O)c3[nH]2)c1` [Example 34, 2-[(3-methoxyphenyl)methyl]-1H-pyrrolo[3,2-b]pyridine-7-carboxylic acid], the IC50 on Jarid1B is 100 to 1000 nM; in the assay with KDM5A and KDM5B, more than 10000 nM; at Jarid1A, less than 100 nM; at JMJD2C, 100 to 1000 nM.

With `O=C(O)c1ccnc2cc(Cc3ccccc3)[nH]c12` [Example 7, 2-benzyl-1H-pyrrolo[3,2-b]pyridine-7-carboxylic acid, sodium salt], the IC50 on Jarid1B was 100 to 1000 nM; on JMJD2A it was 100 to 1000 nM; in the assay with KDM5A and KDM5B, more than 10000 nM; on Jarid1A, 100 to 1000 nM; on JMJD2C, 100 to 1000 nM.

As for `COc1cccc(C(O)c2cc3nccc(C(=O)O)c3[nH]2)c1` (racemic) [Example 24, (±)-2-[hydroxy-(3-methoxyphenyl)methyl]-1H-pyrrolo[3,2-b]pyridine-7-carboxylic acid], the IC50 on Jarid1B was less than 100 nM; at JMJD2A, 100 to 1000 nM; on Jarid1A, less than 100 nM; at JMJD2C it was 100 to 1000 nM.

For the compound `O=C(O)c1ccnc2cc(COc3ccccc3)[nH]c12` [Example 39, 2-(phenoxymethyl)-1H-pyrrolo[3,2-b]pyridine-7-carboxylic acid], the IC50 is less than 100 nM on Jarid1B, 100 to 1000 nM against JMJD2A, less than 100 nM against Jarid1A and less than 100 nM on JMJD2C.

Take `Cc1ccccc1-c1cc2nccc(C(=O)O)c2[nH]1` [Example 3, 2-(2-methylphenyl)-1H-pyrrolo[3,2-b]pyridine-7-carboxylic acid]: the 50% inhibitory concentration (IC50) was 100 to 1000 nM on Jarid1B, less than 100 nM at JMJD2A, 100 to 1000 nM against Jarid1A and 100 to 1000 nM at JMJD2C.

Consider `O=C(O)c1ccnc2cc(C(O)c3ccccc3Cl)[nH]c12` (racemic) [Example 72, (±)-2-[(2-chlorophenyl)-hydroxymethyl]-1H-pyrrolo[3,2-b]pyridine-7-carboxylic acid], for which the IC50 was less than 100 nM on Jarid1B; more than 10000 nM in the assay with KDM5A and KDM5B; less than 100 nM against Jarid1A; 100 to 1000 nM at JMJD2C.

Take `Cc1cccc(Cc2cc3nccc(C(=O)O)c3[nH]2)c1` [Example 36, 2-[(3-methylphenyl)methyl]-1H-pyrrolo[3,2-b]pyridine-7-carboxylic acid]: the IC50 was 100 to 1000 nM at Jarid1B; more than 10000 nM in the assay with KDM5A and KDM5B; less than 100 nM against Jarid1A; less than 100 nM on JMJD2C.

On to `O=C(O)c1ccnc2cc(Cc3ccc(Cl)c(Cl)c3)[nH]c12` [Example 130, 2-(3,4-dichlorobenzyl)-1H-pyrrolo[3,2-b]pyridine-7-carboxylic acid], for which the IC50 at Jarid1B is 1000 to 10000 nM; on JMJD2A, 100 to 1000 nM; at Jarid1A, 1000 to 10000 nM; at JMJD2C it was less than 100 nM.

In the case of `O=C(O)c1ccnc2cc(Cc3ccc(F)cc3)[nH]c12` [Example 101, 2-[(4-fluorophenyl)methyl]pyrrolo[3,2-b]pyridine-7-carboxylic acid], the IC50 at Jarid1B was less than 100 nM; in the assay on KDM5A and KDM5B, more than 10000 nM; against Jarid1A, less than 100 nM; at JMJD2C, less than 100 nM.

As for `O=C(O)c1ccnc2cc(Cc3ccc(Cl)c(OCC4CC4)c3)[nH]c12` [Example 138, 2-[4-chloro-3-(cyclopropylmethoxy)benzyl]-1H-pyrrolo[3,2-b]pyridine-7-carboxylic acid], the IC50 is less than 100 nM on Jarid1B, 1000 to 10000 nM against JMJD2A, 100 to 1000 nM on Jarid1A and less than 100 nM at JMJD2C.

On to `O=C(O)c1ccnc2cc(Cc3ccc(Cl)c(C(F)(F)F)c3)[nH]c12` [Example 136, 2-[4-chloro-3-(trifluoromethyl)benzyl]-1H-pyrrolo[3,2-b]pyridine-7-carboxylic acid], for which the IC50 at Jarid1B is 1000 to 10000 nM; against JMJD2A, 100 to 1000 nM; on Jarid1A, 1000 to 10000 nM; on JMJD2C, less than 100 nM.

Turning to `Cc1cc(Cc2cc3nccc(C(=O)O)c3[nH]2)ccc1Cl` [Example 134, 2-(4-chloro-3-methylbenzyl)-1H-pyrrolo[3,2-b]pyridine-7-carboxylic acid], the IC50 was 100 to 1000 nM on Jarid1B, 100 to 1000 nM at JMJD2A, 1000 to 10000 nM at Jarid1A and less than 100 nM at JMJD2C.
